pIC50, pKi: −log10 of the molar value.
Columns and labels:
[1] = molecular target: T1, Cytochrome P450 2C8 (Homo sapiens, UniProt P10632); assay: Linear mixed inhibition of CYP2C8 in human liver microsomes assessed as rosiglitazone demethylation after 20 mins by LC-MS/MS analysis; assay type: ADME
T1 sequence (P10632 whole entry): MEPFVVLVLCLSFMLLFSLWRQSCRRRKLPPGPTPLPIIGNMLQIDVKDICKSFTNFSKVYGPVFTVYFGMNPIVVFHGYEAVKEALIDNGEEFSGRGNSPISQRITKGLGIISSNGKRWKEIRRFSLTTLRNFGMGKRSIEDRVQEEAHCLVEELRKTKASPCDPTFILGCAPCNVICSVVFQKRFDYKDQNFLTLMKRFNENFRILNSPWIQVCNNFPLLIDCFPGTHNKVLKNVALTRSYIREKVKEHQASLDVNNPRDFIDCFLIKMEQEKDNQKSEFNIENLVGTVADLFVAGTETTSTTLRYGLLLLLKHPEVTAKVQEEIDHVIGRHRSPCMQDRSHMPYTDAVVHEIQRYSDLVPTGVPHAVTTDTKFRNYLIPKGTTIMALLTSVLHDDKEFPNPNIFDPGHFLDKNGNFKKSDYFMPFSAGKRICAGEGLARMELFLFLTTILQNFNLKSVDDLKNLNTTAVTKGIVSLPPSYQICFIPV

[2] = molecular target: T2, UDP-glucuronosyltransferase 2B7 (Homo sapiens, UniProt P16662); assay: Drug metabolism assessed as human recombinant UGT2B7-mediated compound formation treated with AMG 853 after 45 mins by LC-MS/MS analysis in presence of UDPGA; assay type: ADME; details: recombinant enzyme, 0.75 h
T2 sequence (P16662 whole entry): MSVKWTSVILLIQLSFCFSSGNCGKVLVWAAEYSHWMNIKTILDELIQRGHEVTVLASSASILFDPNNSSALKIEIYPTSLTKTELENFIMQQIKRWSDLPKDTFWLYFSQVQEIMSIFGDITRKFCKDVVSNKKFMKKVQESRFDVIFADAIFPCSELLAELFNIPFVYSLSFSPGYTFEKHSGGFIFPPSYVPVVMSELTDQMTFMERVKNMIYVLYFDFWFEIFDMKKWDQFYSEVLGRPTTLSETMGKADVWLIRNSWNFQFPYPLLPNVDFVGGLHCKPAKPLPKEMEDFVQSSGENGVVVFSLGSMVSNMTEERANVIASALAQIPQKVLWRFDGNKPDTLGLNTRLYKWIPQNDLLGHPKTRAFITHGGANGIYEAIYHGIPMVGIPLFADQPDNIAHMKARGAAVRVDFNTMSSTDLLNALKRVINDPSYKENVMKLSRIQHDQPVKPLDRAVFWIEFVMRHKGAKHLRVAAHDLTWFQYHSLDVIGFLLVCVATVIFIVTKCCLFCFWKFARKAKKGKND

[3] = test system: Liver microsome; assay: Drug metabolism in human liver microsomes treated with AMG 853 after 45 mins by LC-MS/MS analysis in presence of UDPGA; assay type: ADME; details: 0.75 h
[4] = molecular target: UDP-glucuronosyltransferase 1A4 (Homo sapiens, UniProt P22310); assay: Drug metabolism assessed as human recombinant UGT1A4-mediated compound formation treated with AMG 853 at 10 uM after 30 mins by LC-MS/MS analysis; assay type: ADME; details: recombinant enzyme, 0.5 h
Chain of UDP-glucuronosyltransferase 1A4 (P22310 whole entry): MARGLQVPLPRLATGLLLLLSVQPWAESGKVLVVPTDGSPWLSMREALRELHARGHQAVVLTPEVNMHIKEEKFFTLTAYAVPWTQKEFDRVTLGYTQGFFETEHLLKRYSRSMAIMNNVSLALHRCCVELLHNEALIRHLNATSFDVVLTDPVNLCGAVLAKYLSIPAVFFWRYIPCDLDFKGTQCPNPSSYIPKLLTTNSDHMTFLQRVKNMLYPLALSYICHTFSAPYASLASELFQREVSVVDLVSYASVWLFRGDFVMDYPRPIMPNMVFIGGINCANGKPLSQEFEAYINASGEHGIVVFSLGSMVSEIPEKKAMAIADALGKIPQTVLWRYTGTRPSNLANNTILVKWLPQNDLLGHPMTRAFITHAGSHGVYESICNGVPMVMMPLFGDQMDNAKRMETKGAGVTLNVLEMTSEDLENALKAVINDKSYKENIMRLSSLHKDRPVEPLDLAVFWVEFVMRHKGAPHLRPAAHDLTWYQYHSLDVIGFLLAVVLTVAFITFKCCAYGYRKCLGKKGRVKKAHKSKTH

[5] = molecular target: T2, UDP-glucuronosyltransferase 2B7; assay: (§1) Drug metabolism assessed as human recombinant UGT2B7-mediated (2S,3S,4S,5R,6S)-6-(2-(4-(4-(tert-butylcarbamoyl)-2-(2-chloro-4-cyclopropylphenylsulfonamido)phenoxy)-5-chloro-2-fluorophenyl)acetoxy)-3,4,5-trihydroxytetrahydro-2H-pyran-2-carboxylic acid formation at 10 uM after 30 mins by LC-MS/MS analysis; assay type: ADME; details: recombinant enzyme, 0.5 h
[6] = Drug metabolism in human liver microsomes assessed as CYP3A5*1/*1-mediated (2S,3S,4S,5R,6S)-6-(2-(4-(4-(tert-butylcarbamoyl)-2-(2-chloro-4-cyclopropylphenylsulfonamido)phenoxy)-5-chloro-2-fluorophenyl)acetoxy)-3,4,5-trihydroxytetrahydro-2H-pyran-2-carboxylic acid formation after 15 mins by LC-MS/MS analysis in presence of UDPGA; assay type: ADME; details: 0.25 h
[7] = test system: CYP2B6; assay: Upregulation of CYP2B6 mRNA expression in human hepatocytes at 0.3 to 30 uM treated every 24 hrs for 2 days measured on day 5 relative to control; assay type: ADME, cell-based, Hepatocyte; details: read-out: FC
[8] = molecular target: UDP-glucuronosyltransferase 2B4 (Homo sapiens, UniProt P06133); assay: as §1, with “UGT2B4-mediated” for “UGT2B7-mediated”; assay type: ADME; details: recombinant enzyme, 0.5 h
Chain of UDP-glucuronosyltransferase 2B4 (P06133 whole entry): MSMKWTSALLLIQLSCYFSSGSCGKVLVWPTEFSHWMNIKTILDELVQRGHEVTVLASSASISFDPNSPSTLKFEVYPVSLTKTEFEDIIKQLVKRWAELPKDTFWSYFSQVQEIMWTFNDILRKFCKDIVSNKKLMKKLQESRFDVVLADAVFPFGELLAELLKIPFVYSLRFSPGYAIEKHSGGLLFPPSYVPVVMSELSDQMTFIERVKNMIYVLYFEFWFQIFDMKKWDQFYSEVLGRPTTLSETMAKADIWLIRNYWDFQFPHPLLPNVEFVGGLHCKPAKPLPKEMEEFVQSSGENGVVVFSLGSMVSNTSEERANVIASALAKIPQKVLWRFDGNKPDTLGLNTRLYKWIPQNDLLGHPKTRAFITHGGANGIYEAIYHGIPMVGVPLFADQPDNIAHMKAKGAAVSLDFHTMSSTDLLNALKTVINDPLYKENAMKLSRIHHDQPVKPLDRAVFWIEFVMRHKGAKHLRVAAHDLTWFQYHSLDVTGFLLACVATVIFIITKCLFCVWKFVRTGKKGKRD

[9] = molecular target: UDP-glucuronosyltransferase 2B17 (Homo sapiens, UniProt O75795); assay: as §1, with “UGT2B17-mediated” for “UGT2B7-mediated”; assay type: ADME; details: recombinant enzyme, 0.5 h
Chain of UDP-glucuronosyltransferase 2B17 (O75795 whole entry): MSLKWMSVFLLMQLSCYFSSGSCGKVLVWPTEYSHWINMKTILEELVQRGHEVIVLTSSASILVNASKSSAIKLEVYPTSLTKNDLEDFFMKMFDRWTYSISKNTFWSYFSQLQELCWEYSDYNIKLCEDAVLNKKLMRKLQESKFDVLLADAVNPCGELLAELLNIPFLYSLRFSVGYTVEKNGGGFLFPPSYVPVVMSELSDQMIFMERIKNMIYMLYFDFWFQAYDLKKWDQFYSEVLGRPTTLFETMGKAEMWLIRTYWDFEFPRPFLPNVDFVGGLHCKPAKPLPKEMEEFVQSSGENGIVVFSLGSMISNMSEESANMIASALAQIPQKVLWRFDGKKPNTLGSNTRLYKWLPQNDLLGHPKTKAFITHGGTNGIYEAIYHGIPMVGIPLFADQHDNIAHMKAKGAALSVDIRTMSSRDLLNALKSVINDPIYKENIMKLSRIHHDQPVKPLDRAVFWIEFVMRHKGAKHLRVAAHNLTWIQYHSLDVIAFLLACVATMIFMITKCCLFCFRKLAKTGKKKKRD

[10] = molecular target: UDP-glucuronosyltransferase 1A7 (Homo sapiens, UniProt Q9HAW7); assay: as §1, with “UGT1A7-mediated” for “UGT2B7-mediated”; assay type: ADME; details: recombinant enzyme, 0.5 h
Chain of UDP-glucuronosyltransferase 1A7 (Q9HAW7 whole entry): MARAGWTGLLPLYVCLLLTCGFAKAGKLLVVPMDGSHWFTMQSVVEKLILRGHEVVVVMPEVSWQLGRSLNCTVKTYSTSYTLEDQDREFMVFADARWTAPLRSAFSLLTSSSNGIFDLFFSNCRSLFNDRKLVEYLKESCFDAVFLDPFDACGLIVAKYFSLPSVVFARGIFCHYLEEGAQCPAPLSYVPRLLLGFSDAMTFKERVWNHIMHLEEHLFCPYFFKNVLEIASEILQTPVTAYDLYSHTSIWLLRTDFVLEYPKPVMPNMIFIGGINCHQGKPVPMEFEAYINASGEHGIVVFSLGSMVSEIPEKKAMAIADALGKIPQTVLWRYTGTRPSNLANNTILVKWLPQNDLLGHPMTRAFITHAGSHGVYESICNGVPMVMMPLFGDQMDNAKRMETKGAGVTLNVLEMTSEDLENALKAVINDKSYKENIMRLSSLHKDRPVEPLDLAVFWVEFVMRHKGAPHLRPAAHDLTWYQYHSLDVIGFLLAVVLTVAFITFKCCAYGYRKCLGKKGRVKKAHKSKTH

[11] = molecular target: CYP2C9 (Homo sapiens, UniProt P11712); assay: Induction of CYP2C9 in human hepatocytes using diclofenac as substrate at 0.3 to 30 uM treated every 24 hrs for 2 days measured on day 5 by LC-MS/MS analysis relative to control; assay type: ADME, cell-based, Hepatocyte; details: probe diclofenac, read-out: FC
Chain of CYP2C9 (P11712 whole entry): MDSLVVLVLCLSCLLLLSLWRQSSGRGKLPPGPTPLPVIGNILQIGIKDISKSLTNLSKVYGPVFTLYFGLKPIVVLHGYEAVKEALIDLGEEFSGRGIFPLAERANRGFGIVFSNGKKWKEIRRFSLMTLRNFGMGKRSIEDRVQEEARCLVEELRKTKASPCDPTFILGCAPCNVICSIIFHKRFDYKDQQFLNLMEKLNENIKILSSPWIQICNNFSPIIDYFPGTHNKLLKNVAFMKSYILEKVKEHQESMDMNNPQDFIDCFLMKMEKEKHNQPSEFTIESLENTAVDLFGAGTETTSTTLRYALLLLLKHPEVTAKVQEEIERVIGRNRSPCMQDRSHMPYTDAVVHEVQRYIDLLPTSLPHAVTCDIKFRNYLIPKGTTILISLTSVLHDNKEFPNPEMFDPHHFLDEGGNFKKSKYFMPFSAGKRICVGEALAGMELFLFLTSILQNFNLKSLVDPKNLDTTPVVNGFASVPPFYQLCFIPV

[12] = molecular target: T1, Cytochrome P450 2C8; assay: Inhibition of CYP2C8 in human liver microsomes assessed as paclitaxel 6-hydroxylation after 5 to 30 mins by LC-MS/MS analysis; assay type: ADME
[13] = test system: Liver microsome; assay: Drug metabolism in human liver microsomes assessed as 2-(5-chloro-4-(2-(2-chloro-4-cyclopropylphenylsulfonamido)-4-(1-hydroxy-2-methylpropan-2-ylcarbamoyl)phenoxy)-2-fluorophenyl)acetic acid formation at 2 uM after 60 mins by LC-MS/MS analysis in presence of montelukast; assay type: ADME; details: 1 h
[14] = molecular target: Cytochrome P450 3A7 (Homo sapiens, UniProt P24462); assay: Drug metabolism assessed as recombinant CYP3A7 (unknown origin)-mediated 2-(5-chloro-4-(2-(2-chloro-4-cyclopropylphenylsulfonamido)-4-(1-hydroxy-2-methylpropan-2-ylcarbamoyl)phenoxy)-2-fluorophenyl)acetic acid formation at 10 uM after 30 mins by LC-MS/MS analysis; assay type: ADME; details: recombinant enzyme, 0.5 h
Chain of Cytochrome P450 3A7 (P24462 whole entry): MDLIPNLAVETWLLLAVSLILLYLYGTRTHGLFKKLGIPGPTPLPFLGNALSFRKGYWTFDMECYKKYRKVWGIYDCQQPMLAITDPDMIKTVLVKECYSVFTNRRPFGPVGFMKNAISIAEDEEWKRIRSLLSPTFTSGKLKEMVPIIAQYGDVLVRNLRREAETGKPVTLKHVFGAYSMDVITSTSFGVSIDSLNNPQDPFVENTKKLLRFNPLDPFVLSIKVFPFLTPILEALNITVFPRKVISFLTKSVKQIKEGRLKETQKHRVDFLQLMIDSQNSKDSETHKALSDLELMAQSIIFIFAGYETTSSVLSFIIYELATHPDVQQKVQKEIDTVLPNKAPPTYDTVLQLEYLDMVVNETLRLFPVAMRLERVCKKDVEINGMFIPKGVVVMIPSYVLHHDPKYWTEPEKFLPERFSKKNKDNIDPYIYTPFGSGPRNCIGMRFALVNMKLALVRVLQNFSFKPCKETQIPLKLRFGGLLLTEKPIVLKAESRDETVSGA

[15] = molecular target: UDP-glucuronosyltransferase 1A10 (Homo sapiens, UniProt Q9HAW8); assay: as §1, with “UGT1A10-mediated” for “UGT2B7-mediated”; assay type: ADME; details: recombinant enzyme, 0.5 h
Chain of UDP-glucuronosyltransferase 1A10 (Q9HAW8 whole entry): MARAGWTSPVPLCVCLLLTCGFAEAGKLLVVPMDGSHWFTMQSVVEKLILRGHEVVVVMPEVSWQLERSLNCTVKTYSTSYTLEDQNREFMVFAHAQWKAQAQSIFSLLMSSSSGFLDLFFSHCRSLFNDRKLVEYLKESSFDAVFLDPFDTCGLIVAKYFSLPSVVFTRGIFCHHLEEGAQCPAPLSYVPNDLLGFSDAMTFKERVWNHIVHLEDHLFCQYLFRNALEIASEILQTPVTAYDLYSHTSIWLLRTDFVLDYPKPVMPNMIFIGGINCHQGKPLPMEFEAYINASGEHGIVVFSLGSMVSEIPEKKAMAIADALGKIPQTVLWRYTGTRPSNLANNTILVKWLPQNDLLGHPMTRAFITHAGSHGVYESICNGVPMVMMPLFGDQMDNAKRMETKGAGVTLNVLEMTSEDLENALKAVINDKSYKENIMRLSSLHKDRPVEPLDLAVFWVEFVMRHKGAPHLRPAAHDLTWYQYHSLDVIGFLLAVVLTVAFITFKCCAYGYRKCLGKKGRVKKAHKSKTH

[16] = molecular target: UDP-glucuronosyltransferase 1A8 (Homo sapiens, UniProt Q9HAW9); assay: as §1, with “UGT1A8-mediated” for “UGT2B7-mediated”; assay type: ADME; details: recombinant enzyme, 0.5 h
Chain of UDP-glucuronosyltransferase 1A8 (Q9HAW9 whole entry): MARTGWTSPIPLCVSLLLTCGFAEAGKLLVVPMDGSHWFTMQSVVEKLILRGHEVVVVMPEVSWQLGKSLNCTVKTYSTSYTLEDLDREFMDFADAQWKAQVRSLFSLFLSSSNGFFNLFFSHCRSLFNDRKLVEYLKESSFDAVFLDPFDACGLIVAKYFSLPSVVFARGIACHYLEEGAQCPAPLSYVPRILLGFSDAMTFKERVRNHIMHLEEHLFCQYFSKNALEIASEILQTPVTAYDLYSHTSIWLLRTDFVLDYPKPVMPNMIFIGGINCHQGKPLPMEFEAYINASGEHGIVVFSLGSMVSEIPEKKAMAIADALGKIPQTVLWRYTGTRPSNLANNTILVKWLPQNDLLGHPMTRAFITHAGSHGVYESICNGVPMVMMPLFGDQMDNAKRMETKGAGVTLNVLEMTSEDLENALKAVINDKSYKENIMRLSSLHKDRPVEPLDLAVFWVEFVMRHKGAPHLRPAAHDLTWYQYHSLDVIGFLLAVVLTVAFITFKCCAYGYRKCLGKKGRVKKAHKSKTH

[17] = test system: Liver microsome; assay: Drug metabolism in human liver microsomes assessed as 2-(4-(4-(tert-butylcarbamoyl)-2-(2-chloro-4-(1-hydroxycyclopropyl)phenylsulfonamido)phenoxy)-5-chloro-2-fluorophenyl)acetic acid formation at 2 uM after 60 mins by LC-MS/MS analysis in presence of montelukast; assay type: ADME; details: 1 h
[18] = molecular target: Cytochrome P450 3A5 (Homo sapiens, UniProt P20815); assay: Drug metabolism assessed as recombinant CYP3A5 (unknown origin)-mediated 2-(5-chloro-4-(2-(2-chloro-4-cyclopropylphenylsulfonamido)-4-(1-hydroxy-2-methylpropan-2-ylcarbamoyl)phenoxy)-2-fluorophenyl)acetic acid formation at 10 uM after 30 mins by LC-MS/MS analysis; assay type: ADME; details: recombinant enzyme, 0.5 h
Chain of Cytochrome P450 3A5 (P20815 whole entry): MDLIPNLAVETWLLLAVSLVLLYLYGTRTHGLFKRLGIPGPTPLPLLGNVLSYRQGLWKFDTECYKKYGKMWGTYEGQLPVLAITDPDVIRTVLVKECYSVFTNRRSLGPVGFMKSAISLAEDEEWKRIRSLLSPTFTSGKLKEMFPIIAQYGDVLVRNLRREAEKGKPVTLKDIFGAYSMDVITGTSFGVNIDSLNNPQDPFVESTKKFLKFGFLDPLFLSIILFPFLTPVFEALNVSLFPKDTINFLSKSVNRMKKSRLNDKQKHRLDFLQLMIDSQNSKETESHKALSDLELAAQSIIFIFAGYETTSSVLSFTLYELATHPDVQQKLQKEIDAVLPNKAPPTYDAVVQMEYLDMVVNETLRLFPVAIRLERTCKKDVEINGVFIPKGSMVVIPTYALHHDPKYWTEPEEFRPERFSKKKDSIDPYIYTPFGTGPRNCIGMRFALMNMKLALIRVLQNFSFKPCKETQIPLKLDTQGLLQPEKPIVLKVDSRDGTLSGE

| SMILES | pKi [1] | S50 [2] [µM] | Vmax [2] [pmol/min/mg] | S50 [3] [µM] | Vmax [3] [pmol/min/mg] | Drug metabolism [4] | Drug metabolism [5] | Drug metabolism [6] | fold induction at 48 h, up to 30 µM [7] | Drug metabolism [8] | Drug metabolism [9] | Drug metabolism [10] | fold induction at 48 h, up to 30 µM [11] | pIC50 [12] | Drug metabolism [13] | Drug metabolism [14] | Drug metabolism [15] | Drug metabolism [16] | Drug metabolism [17] | Drug metabolism [18] |
| --- | --- | --- | --- | --- | --- | --- | --- | --- | --- | --- | --- | --- | --- | --- | --- | --- | --- | --- | --- | --- |
| CC(C)(C)NC(=O)c1ccc(Oc2cc(F)c(CC(=O)O[C@@H]3O[C@H](C(=O)O)[C@@H](O)[C@H](O)[C@H]3O)cc2Cl)c(NS(=O)(=O)c2ccc(C3CC3)cc2Cl)c1 | 5.16 | 183.4 | 13.6 | 205.4 | 43 | metabolite_detected |  |  |  |  |  |  |  |  |  |  |  |  |  |  |
| CC(C)(C)NC(=O)c1ccc(Oc2cc(F)c(CC(=O)O)cc2Cl)c(NS(=O)(=O)c2ccc(C3CC3)cc2Cl)c1 [VIDUPIPRANT] |  |  |  |  |  |  | metabolite_detected | metabolite_detected | 1.7 | metabolite_not_detected | metabolite_not_detected | metabolite_not_detected | 1.4 | 5.27 | metabolite_not_detected | metabolite_detected | metabolite_not_detected | metabolite_detected | metabolite_not_detected | metabolite_detected |

Source: ChEMBL document CHEMBL3526017, “Predicting the drug interaction potential of AMG 853, a dual antagonist of the D-prostanoid and chemoattractant receptor-homologous molecule expressed on T helper 2 cells receptors” (Drug Metab Dispos, 2012)
